Measurements as given in PubChem BioAssay (NCI).
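Assay format: 96-well plates, 48-hour exposure. Abbreviation: GI50, concentration required for 50% inhibition of growth. TGI: total growth inhibition.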

Columns and labels:
Assay in all cases: NCI anticancer screen, dose series, 48 h
[1] = tested on: SK-OV-3 ovarian
[2] = tested on: SNB-75 CNS
[3] = tested on: KM12 colon
[4] = tested on: SK-MEL-5 melanoma
[5] = tested on: EKVX NSCLC
[6] = tested on: UO-31 renal
[7] = tested on: HCC-2998 colon
[8] = tested on: SNB-19 CNS
[9] = tested on: MDA-MB-435
[10] = tested on: ACHN renal

Structure (SMILES)	TGI [1]	TGI [2]	TGI [3]	TGI [4]	TGI [5]	TGI [6]	TGI [7]	TGI [8]	TGI [9]	TGI [10]	GI50 [2]	GI50 [4]	GI50 [9]	GI50 [6]	GI50 [10]
CCCCC(C)C1CCC2(C)C=CC(=O)C(C)=C2C1O (configuration not stated)	> 100 µM	> 100 µM	> 100 µM	> 100 µM	> 100 µM	> 100 µM	> 100 µM	> 100 µM							
O=C(O)C1CCCN1Cc1cc2ccccc2c2ccccc12 (configuration not stated)	> 100 µM	> 100 µM	> 100 µM	> 100 µM	> 100 µM	> 100 µM		> 100 µM	> 100 µM	> 100 µM					
Nc1nc(SCCNC(=O)CCc2ccc(O)cc2)nc2c1ncn2C1OC(CO)C(O)C1O (configuration not stated)	> 203 µM	> 203 µM	> 203 µM	> 203 µM		> 203 µM	> 203 µM	> 203 µM		> 203 µM					
CC1(C23CC4CC(CC(C4)C2)C3)n2c(=O)n(-c3ccccc3)c(=O)n2C1(C)C12CC3CC(CC(C3)C1)C2 (configuration not stated)	> 100 µM	> 100 µM	> 100 µM	> 100 µM	> 100 µM	> 100 µM		> 100 µM	> 100 µM	> 100 µM					
COc1ccc(N2C(=O)C3ON(C(C(N)=O)c4ccccc4)C(c4ccc(-c5ccccc5)cc4)C3C2=O)cc1 (configuration not stated)	> 50 µM	> 50 µM	> 50 µM		> 50 µM	> 50 µM		> 50 µM	> 50 µM	> 50 µM					
COc1cc(C2C(Cl)C(=O)N2NC(=O)c2ccccc2O)ccc1O (configuration not stated)	> 100 µM		> 100 µM	> 100 µM		> 100 µM	> 100 µM	> 100 µM		> 100 µM					
CN1C2CC(=O)CC1[C@H](O)[C@@H]2O			> 100 µM		> 100 µM	> 100 µM	> 100 µM	> 100 µM	> 100 µM						
COc1cc2c(c(C)c1O)[C@H]1COc3ccccc3[C@H]1O2	> 100 µM	23.7 µM	> 100 µM	22.9 µM	74.7 µM	35.5 µM		26.7 µM		> 100 µM					
CCCn1c(SCC)c2ccccc2c1-c1nc(F)nc(F)n1			> 100 µM		> 100 µM	> 100 µM	> 100 µM	> 100 µM		> 100 µM					
NCCCNc1nc2ccccc2c2c(=O)c3cc(C(F)(F)F)ccc3sc12		2.96 µM		3.07 µM		2.74 µM			3.06 µM	2.94 µM	1.53 µM	1.7 µM	1.65 µM	1.4 µM	1.59 µM
CCOC(=O)c1csc(NC(=O)CCN2CCCCC2)n1	> 100 µM			> 100 µM	> 100 µM	> 100 µM	> 100 µM	> 100 µM	> 100 µM	> 100 µM					
CCc1n[nH]c(=O)n1/N=C/c1ccccc1Cl	> 100 µM		> 100 µM	> 100 µM	29.4 µM	> 100 µM	> 100 µM	> 100 µM	> 100 µM	> 100 µM					
O=C(/C=C/c1ccc(Cl)cc1)Oc1ccc(/C=C2\CCCCC2=O)cc1		> 100 µM	> 100 µM	> 100 µM	> 100 µM	> 100 µM	> 100 µM		> 100 µM	> 100 µM					
CC1(C)CC[C@]2(C)CC=C3[C@]4(C)CC[C@H]5C(C)(C)C(=O)CC[C@]5(C)[C@H]4CC[C@@]3(C)[C@H]2C1	> 100 µM		> 100 µM	> 100 µM	> 100 µM	> 100 µM	> 100 µM	> 100 µM	> 100 µM	> 100 µM					
COC(=O)C(CCCC1(c2ccccc2)OCCO1)C(C)=O (configuration not stated)	> 100 µM	> 100 µM	> 100 µM	> 100 µM	> 100 µM	> 100 µM	> 100 µM	> 100 µM		> 100 µM					
CC1(C2(C)OC(=O)c3ccccc32)OC(=O)c2ccccc21 (configuration not stated)	> 100 µM	> 100 µM	> 100 µM	> 100 µM		> 100 µM	> 100 µM	> 100 µM	> 100 µM	> 100 µM					
COC1=CC(=O)[C@H]2[C@H](C)C(c3ccccc3)[C@@]2(C)C1=O (some centres not stated)	> 100 µM	> 100 µM	> 100 µM	> 100 µM	> 100 µM	> 100 µM	> 100 µM	> 100 µM		> 100 µM					
CC(OC(=O)NCn1cc(-c2ccccc2)nn1)c1ccccc1 (configuration not stated)			> 100 µM	32.4 µM	> 100 µM		> 100 µM	> 100 µM	> 100 µM	> 100 µM					
